# Data reported in patent US20250221966A1, “RXFP1 AGONISTS” (BRISTOL-MYERS SQUIBB COMPANY, priority 2021, published 2025).
# Biological target: T1, human RXFP1 (Homo sapiens, UniProt Q9HBX9)
# T1 construct: expressed in transfected cells
# T1 sequence (Q9HBX9 1-757): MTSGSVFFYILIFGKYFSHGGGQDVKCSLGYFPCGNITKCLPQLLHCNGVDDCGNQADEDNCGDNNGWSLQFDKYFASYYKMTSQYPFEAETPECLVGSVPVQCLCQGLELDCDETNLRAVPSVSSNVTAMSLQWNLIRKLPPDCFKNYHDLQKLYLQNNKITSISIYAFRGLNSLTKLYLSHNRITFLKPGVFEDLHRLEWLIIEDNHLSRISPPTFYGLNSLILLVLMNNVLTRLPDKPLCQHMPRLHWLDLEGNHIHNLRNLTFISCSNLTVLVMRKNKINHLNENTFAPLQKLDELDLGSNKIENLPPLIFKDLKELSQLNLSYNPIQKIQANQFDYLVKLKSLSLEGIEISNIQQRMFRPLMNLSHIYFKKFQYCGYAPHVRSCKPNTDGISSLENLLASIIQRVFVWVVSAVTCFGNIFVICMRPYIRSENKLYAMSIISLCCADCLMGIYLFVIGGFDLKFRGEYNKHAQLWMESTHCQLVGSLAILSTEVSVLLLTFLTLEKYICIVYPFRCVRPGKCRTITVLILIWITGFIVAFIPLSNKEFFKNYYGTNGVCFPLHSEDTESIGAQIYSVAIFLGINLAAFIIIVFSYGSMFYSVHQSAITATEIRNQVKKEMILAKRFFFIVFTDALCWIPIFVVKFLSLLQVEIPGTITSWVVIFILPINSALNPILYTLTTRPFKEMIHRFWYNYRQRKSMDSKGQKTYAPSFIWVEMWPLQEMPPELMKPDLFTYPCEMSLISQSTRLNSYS
# Test: RXFP1 cAMP assay (hRXFP1 HEK293 cAMP assay, HTRF)
# Format: cell-based
# Conditions: HEK293 cells stably expressing human RXFP1, 30 min at room temperature, read-out: cAMP hRXFP1 HEK293 Assay EC50
# Procedure, shortened: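 In a stable human RXFP1 HEK293 line, compounds acted for 30 min at RT in buffer with 0.5 mM IBMX. HTRF then quantified cellular cAMP.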
row,SMILES,EC50
1,"COc1ccc(C23COC(C(=O)O)(C2)C3)cc1C(=O)N[C@H]1[C@@H](C(=O)Nc2ccc(F)c(C(F)(F)F)c2)[C@H]2CC[C@@H]1/C2=C\C(F)(F)F [Example 724, 4-(3-(((1R,2R,3S,4R,Z)-3-((4-fluoro-3-(trifluoromethyl)phenyl)carbamoyl)-7-(2,2,2-trifluoroethylidene)bicyclo[2.2.1]heptan-2-yl)carbamoyl)-4-methoxyphenyl)-2-oxabicyclo[2.1.1]hexane-1-carboxylic acid]",5 µM
2,"COc1ccc(C2=NOC3CC(C(C)(C)O)CC23)cc1C(=O)N[C@H]1[C@@H](C(=O)Nc2ccc(F)c(C(F)(F)F)c2)[C@H]2CC[C@@H]1/C2=C\C1CC1 (single isomer, unassigned) [compound 579]",0.0716 µM
3,COc1ccc(Br)cc1C(=O)N[C@@H]1C2CCC(/C2=C/c2ccccc2)[C@@H]1C(=O)Nc1ccc(F)c(C(F)(F)F)c1 (some centres unmarked) [Example 77],0.33 µM
4,COc1ccc(Br)cc1C(=O)NC1C2CCC(C2=C(C)C)C1C(=O)Nc1ccc(F)c(C(F)(F)F)c1 (centres unmarked) [Example 76],0.4 µM
5,COc1ccc(C2=NOC(CC(=O)O)C2)cc1C(=O)N[C@@H]1C2CCC(/C2=C/C2CCC2)[C@@H]1C(=O)Nc1ccc(F)c(C(F)(F)F)c1 (some centres unmarked) [compound 393],0.073 µM
6,COc1ccc(-c2cc(C(=O)O)ccc2F)cc1C(=O)N[C@@H]1C2CCC(/C2=C/C2CC2)[C@@H]1C(=O)NCc1ccccc1 (some centres unmarked) [compound 260],2.97 µM
7,"COc1ccc(N2CCC(NC(=O)C3CCOCC3)C2)cc1C(=O)N[C@@H]1C2CCC(/C2=C/C(F)(F)F)[C@@H]1C(=O)Nc1ccc(F)c(C(F)(F)F)c1 (single isomer, unassigned) [compound 337]",2.08 µM
8,CCOC(=O)C(NC(=O)C1CCOCC1)c1cnn(-c2ccc(OC)c(C(=O)N[C@@H]3C4CCC(/C4=C/C(F)(F)F)[C@@H]3C(=O)Nc3ccc(F)c(C(F)(F)F)c3)c2)c1 (some centres unmarked) [Example 346],0.169 µM
9,"COc1ccc(C2=NOC(C3(O)CCCC3)C2)cc1C(=O)N[C@H]1[C@@H](C(=O)Nc2ccc(F)c(C(F)(F)F)c2)[C@H]2CC[C@@H]1/C2=C\C1CC1 (single isomer, unassigned) [compound 619]",0.156 µM
10,COc1ccc(C2CCCN2C(=O)CCO)cc1C(=O)N[C@@H]1C2CCC(C2=CC2CC2)[C@@H]1C(=O)Nc1ccc(F)c(C(F)(F)F)c1 (some centres unmarked) [compound 634],0.191 µM
11,COc1ccc(-c2cc(C(=O)O)ccc2F)cc1C(=O)N[C@@H]1C2CCC(/C2=C/C2CC2)[C@@H]1C(=O)NC1CCOCC1 (some centres unmarked) [compound 204],3.2 µM
12,COc1ccccc1/C=C1\C2CCC1[C@H](C(=O)Nc1ccc(F)c(C(F)(F)F)c1)[C@@H]2NC(=O)c1cc(F)c(F)cc1OC (some centres unmarked) [compound 23],1.4 µM
13,"COc1ccc(C2=NOC(C3(O)CCC3)C2)cc1C(=O)N[C@H]1[C@@H](C(=O)Nc2ccc(F)c(C(F)(F)F)c2)[C@H]2CC[C@@H]1/C2=C\C1CC1 (single isomer, unassigned) [compound 603]",0.112 µM
14,"COc1ccc(C2CC3COCC32)cc1C(=O)N[C@H]1[C@@H](C(=O)Nc2ccc(F)c(C(F)(F)F)c2)[C@H]2CC[C@@H]1/C2=C\C1CC1 (single isomer, unassigned) [compound 729]",0.082 µM
15,COc1ccc(-c2cc(C(=O)O)ccc2F)cc1C(=O)N[C@@H]1C2CCC(/C2=C/C2CC2)[C@@H]1C(=O)NC1CCCCC1 (some centres unmarked) [compound 203],0.322 µM
16,COC(=O)c1cnn2cc(-c3ccc(OC)c(C(=O)N[C@@H]4C5CCC(/C5=C/C(F)(F)F)[C@@H]4C(=O)Nc4ccc(F)c(C(F)(F)F)c4)c3)ccc12 (some centres unmarked) [compound 313],0.09 µM

# Stronger by EC50, values ahead:
row,EC50,SMILES
1,0.039 µM,COc1ccc(-c2ccc(N3CCOCC3)nc2)cc1C(=O)N[C@H]1[C@@H](C(=O)Nc2ccc(F)c(C(F)(F)F)c2)[C@H]2CC[C@@H]1C2=C(C)C [compound 81]
2,0.031 µM,COc1ccc(-c2cnc3c(cnn3CC(=O)O)c2)cc1C(=O)N[C@@H]1C2CCC(/C2=C/C(F)(F)F)[C@@H]1C(=O)Nc1ccc(F)c(C(F)(F)F)c1 (some centres unmarked) [compound 317]
3,0.028 µM,"COc1ccc(-c2cc(CO)on2)cc1C(=O)N[C@H]1[C@@H](C(=O)Nc2ccc(F)c(C(F)(F)F)c2)[C@H]2CC[C@@H]1/C2=C\C1CC1 [Example 423, (1R,2S,3R,4R,Z)-7-(cyclopropylmethylene)-N-(4-fluoro-3-(trifluoromethyl)phenyl)-3-(5-(5-(hydroxymethyl)isoxazol-3-yl)-2-methoxybenzamido)bicyclo [2.2.1]heptane-2-carboxamide]"
4,0.0224 µM,"COc1ccc(C2=NOC(CC(C)(C)O)C2)cc1C(=O)N[C@H]1[C@@H](C(=O)Nc2ccc(F)c(C(F)(F)F)c2)[C@H]2CC[C@@H]1/C2=C\C1CC1 (single isomer, unassigned) [compound 528]"
5,0.018 µM,"COc1ccc(C2=NOC(C(C)(O)C(F)(F)F)C2)cc1C(=O)N[C@H]1[C@@H](C(=O)Nc2ccc(F)c(C(F)(F)F)c2)[C@H]2CC[C@@H]1/C2=C\C1CC1 (single isomer, unassigned) [compound 517]"
6,0.016 µM,COc1ccc(-c2cc(C(CO)NC(=O)C3CCOCC3)ccc2F)cc1C(=O)N[C@@H]1C2CCC(/C2=C/C2CC2)[C@@H]1C(=O)Nc1ccc(F)c(C(F)(F)F)c1 (some centres unmarked) [compound 257]
7,0.0068 µM,COc1ccc(-c2cc(C3=NOC(CO)C3)ccc2F)cc1C(=O)N[C@H]1[C@@H](C(=O)Nc2ccc(F)c(C(F)(F)F)c2)[C@H]2CC[C@@H]1/C2=C\C1CC1 (some centres unmarked) [compound 906]
8,0.0049 µM,COc1ccc(C2=NOC3COCC23)cc1C(=O)N[C@H]1[C@@H](C(=O)Nc2ccc(F)c(C(F)(F)F)c2)[C@H]2CC[C@@H]1/C2=C\c1csc(C)n1 (some centres unmarked) [compound 806]
9,0.0044 µM,O=C(N[C@H]1[C@@H](C(=O)Nc2ccc(F)c(C(F)(F)F)c2)[C@H]2CC[C@@H]1/C2=C\C1CC1)c1cc(C2=NOC3CC(CO)CC23)cc(F)c1OCC(F)F (some centres unmarked) [compound 789]
10,0.0041 µM,COc1ccc(-c2cc(C(NC(=O)C3CCOCC3)C(=O)O)ccc2F)cc1C(=O)N[C@H]1[C@@H](C(=O)Nc2ccc(F)c(C(F)(F)F)c2)[C@H]2CC[C@@H]1/C2=C\CCC(F)(F)F (some centres unmarked) [compound 940]
11,0.004 µM,COc1ccc(C2=NOC3CN(C(=O)OC(C)(C)C)CC23)cc1C(=O)N[C@@H]1C2CCC(/C2=C/C2CC2)[C@@H]1C(=O)Nc1ccc(F)c(C(F)(F)F)c1 (some centres unmarked) [compound 436]
12,0.0036 µM,COc1ccc(-c2ccc(C(=O)O)cc2F)cc1C(=O)N[C@H]1[C@@H](C(=O)Nc2ccc(F)c(C(F)(F)F)c2)[C@H]2CC[C@@H]1/C2=C\C1CC(F)(F)C1 [compound 919]
13,0.0027 µM,COc1ccc(-c2cc(C(C)CC(=O)O)ccc2F)cc1C(=O)N[C@H]1[C@@H](C(=O)Nc2ccc(F)c(C(F)(F)F)c2)[C@H]2CC[C@@H]1/C2=C\C1CC1 (some centres unmarked) [compound 888]
14,0.0025 µM,COc1ccc(C2=NOC3CC(C(O)C(F)(F)F)CC23)cc1C(=O)N[C@H]1[C@@H](C(=O)Nc2ccc(F)c(C(F)(F)F)c2)[C@H]2CC[C@@H]1/C2=C\C1CC1 (some centres unmarked) [compound 848]
15,0.002 µM,"COc1ccc(C2=NOC3CC(CO)CC23)cc1C(=O)N[C@@H]1C2CCC(/C2=C/C2CC2)[C@@H]1C(=O)Nc1ccc(F)c(C(F)(F)F)c1 (single isomer, unassigned) [compound 432]"
16,0.0009 µM,COc1c(F)cc(C2=NOC3CC(CO)CC23)cc1C(=O)N[C@H]1[C@@H](C(=O)N[C@H](C)C2(C)CC2)[C@H]2CC[C@@H]1/C2=C\C1CC1 (some centres unmarked) [compound 757]
